Data as given in patent US5571804A, “Cephalosporin antibiotics” (priority 1993, dated 1996).

Legend:
[1] = test system: Staphylococcus aureus 6538P; assay: MIC, two-fold agar dilution; type: cell-based; details: Muller-Hinton agar, 37° C., 20 hours
[2] = test system: Staphylococcus aureus giorgio; assay: MIC, two-fold agar dilution; type: cell-based; details: Muller-Hinton agar, 37° C., 20 hours
[3] = test system: Staphylococcus aureus 77; assay: MIC, two-fold agar dilution; type: cell-based; details: Muller-Hinton agar, 37° C., 20 hours
[4] = test system: Staphylococcus aureus 241; assay: MIC, two-fold agar dilution; type: cell-based; details: Muller-Hinton agar, 37° C., 20 hours
[5] = test system: Staphylococcus epidermidis 887E; assay: MIC, two-fold agar dilution; type: cell-based; details: Muller-Hinton agar, 37° C., 20 hours
[6] = test system: Streptococcus laecalis 29212A; assay: MIC, two-fold agar dilution; type: cell-based; details: Muller-Hinton agar, 37° C., 20 hours
[7] = test system: E. coli 10536; assay: MIC, two-fold agar dilution; type: cell-based; details: Muller-Hinton agar, 37° C., 20 hours
[8] = test system: E. coli 3190Y; assay: MIC, two-fold agar dilution; type: cell-based; details: Muller-Hinton agar, 37° C., 20 hours
[9] = test system: E. coli 851E; assay: MIC, two-fold agar dilution; type: cell-based; details: Muller-Hinton agar, 37° C., 20 hours
[10] = test system: E. coli TEM1 1193E; assay: MIC, two-fold agar dilution; type: cell-based; details: Muller-Hinton agar, 37° C., 20 hours
[11] = test system: E. coli TEM3 3455E; assay: MIC, two-fold agar dilution; type: cell-based; details: Muller-Hinton agar, 37° C., 20 hours
[12] = test system: E. coli TEM5 3739E; assay: MIC, two-fold agar dilution; type: cell-based; details: Muller-Hinton agar, 37° C., 20 hours
[13] = test system: E. coli TEM7 3457E; assay: MIC, two-fold agar dilution; type: cell-based; details: Muller-Hinton agar, 37° C., 20 hours
[14] = test system: E. coli TEM9 2639E; assay: MIC, two-fold agar dilution; type: cell-based; details: Muller-Hinton agar, 37° C., 20 hours
[15] = test system: Pseudomonas aeruginosa 1912E; assay: MIC, two-fold agar dilution; type: cell-based; details: Muller-Hinton agar, 37° C., 20 hours
[16] = test system: Pseudomonas aeruginosa 10145; assay: MIC, two-fold agar dilution; type: cell-based; details: Muller-Hinton agar, 37° C., 20 hours
[17] = test system: Pseudomonas aeruginosa 6065; assay: MIC, two-fold agar dilution; type: cell-based; details: Muller-Hinton agar, 37° C., 20 hours
[18] = test system: Acinetobacter calcoaceticus 15473A; assay: MIC, two-fold agar dilution; type: cell-based; details: Muller-Hinton agar, 37° C., 20 hours
[19] = test system: Citrobacter diversus 2046E; assay: MIC, two-fold agar dilution; type: cell-based; details: Muller-Hinton agar, 37° C., 20 hours
[20] = test system: Enterobacter cloacae IND + VE 1194E; assay: MIC, two-fold agar dilution; type: cell-based; details: Muller-Hinton agar, 37° C., 20 hours
[21] = test system: Enterobacter cloacae P99; assay: MIC, two-fold agar dilution; type: cell-based; details: Muller-Hinton agar, 37° C., 20 hours
[22] = test system: Klebsiella aerogenes SHV-1 1976E; assay: MIC, two-fold agar dilution; type: cell-based; details: Muller-Hinton agar, 37° C., 20 hours
[23] = test system: Klebsiella aerogenes K1 + 1082E; assay: MIC, two-fold agar dilution; type: cell-based; details: Muller-Hinton agar, 37° C., 20 hours
[24] = test system: Proteus vularis 6059A; assay: MIC, two-fold agar dilution; type: cell-based; details: Muller-Hinton agar, 37° C., 20 hours
[25] = test system: Serratia marcescens 1826E; assay: MIC, two-fold agar dilution; type: cell-based; details: Muller-Hinton agar, 37° C., 20 hours
[26] = test system: Salmonella typhimurium 14028A; assay: MIC, two-fold agar dilution; type: cell-based; details: Muller-Hinton agar, 37° C., 20 hours
[27] = pharmakinetic variables in SD rats; details: rat, in vivo, iv, 20 mg/kg
Description: The pharmakinetic variables were determined using SD rats (.male.) of a body weight of 230±10g as follows. The "S" compound of each of the Examples was injected to femoral vein of 4-5 rats by 20mg/Kg and then blood was collected from femoral artery in 1, 2.5, 5, 10, 20, 40, 60 and 120 min.

Structure (SMILES)	minimal inhibitory concentration (MIC) [1]	minimal inhibitory concentration (MIC) [2]	minimal inhibitory concentration (MIC) [3]	minimal inhibitory concentration (MIC) [4]	minimal inhibitory concentration (MIC) [5]	minimal inhibitory concentration (MIC) [6]	minimal inhibitory concentration (MIC) [7]	minimal inhibitory concentration (MIC) [8]	minimal inhibitory concentration (MIC) [9]	minimal inhibitory concentration (MIC) [10]	minimal inhibitory concentration (MIC) [11]	minimal inhibitory concentration (MIC) [12]	minimal inhibitory concentration (MIC) [13]	minimal inhibitory concentration (MIC) [14]	minimal inhibitory concentration (MIC) [15]	minimal inhibitory concentration (MIC) [16]	minimal inhibitory concentration (MIC) [17]	minimal inhibitory concentration (MIC) [18]	minimal inhibitory concentration (MIC) [19]	minimal inhibitory concentration (MIC) [20]	also measured
Cc1c(N)nc(SCC2=C(C(=O)O)N3C(=O)[C@@H](NC(=O)/C(=N\O[C@H](C(=O)O)c4ccc(O)c(O)c4)c4csc(N)n4)[C@H]3SC2)nc1N [Compound I-2S, 7-[(Z)-2-(aminothiazol-4-yl)-2-(α-carboxyl-3,4-dihydroxybenzyloxyimino)acetamido]-3-(4,6-diamino-5-methylpyrimidine-2-yl)thiomethyl-3-cephem-4-carboxylate]	1	1	4	64	16	4	≤ 0.008	0.063	0.031	0.031	0.016	0.063	≤ 0.008	0.25	0.5	0.13	0.25	0.25	0.016	4	minimal inhibitory concentration (MIC) [21]: 8; minimal inhibitory concentration (MIC) [22]: 0.13; minimal inhibitory concentration (MIC) [23]: 0.031; minimal inhibitory concentration (MIC) [24]: 0.13; minimal inhibitory concentration (MIC) [25]: 0.25; minimal inhibitory concentration (MIC) [26]: 0.016; AUC at 2 h [27]: 54100 ng·h/mL; half-life [27]: 55 min
Nc1ccnc(SCC2=C(C(=O)O)N3C(=O)[C@@H](NC(=O)/C(=N\O[C@H](C(=O)O)c4ccc(O)c(O)c4)c4csc(N)n4)[C@H]3SC2)n1 [Compound I-3S, 7-[(Z)-2-(aminothiazol-4-yl)-2-(α-carboxyl-3,4-dihydroxybenzyloxyimino)acetamido]-3-(4-amino-pyrimidine-2-yl) thiomethyl-3-cephem-4-carboxylate]	2	1	4	128	32	4	≤ 0.008	0.031	0.063	0.031	0.016	0.063	0.063	0.25	0.25	0.13	0.5	0.13	0.031	2	minimal inhibitory concentration (MIC) [21]: 8; minimal inhibitory concentration (MIC) [22]: 0.13; minimal inhibitory concentration (MIC) [23]: 0.031; minimal inhibitory concentration (MIC) [24]: 0.13; minimal inhibitory concentration (MIC) [25]: 0.25; minimal inhibitory concentration (MIC) [26]: 0.016; AUC at 2 h [27]: 57900 ng·h/mL; half-life [27]: 58 min
Nc1nc(/C(=N/O[C@H](C(=O)O)c2ccc(O)c(O)c2)C(=O)N[C@@H]2C(=O)N3C(C(=O)O)=C(CSc4nc(N)c5c(n4)CCC5)CS[C@H]23)cs1 [Compound I-4S, 7-[(Z)-2-(aminothiazol-4-yl)-2-(α-carboxyl-3,4-dihydroxybenzyioxyimino)acetamido]-3-(4-amino-5,6-cyclopentapyrimidine-2-yl)thiomethyl-3-cephem-4-carboxylate]	1	1	8	64	32	4	≤ 0.008	0.031	0.031	0.063	0.016	0.063	≤ 0.008	0.25	0.25	0.13	0.13	0.13	0.063	2	minimal inhibitory concentration (MIC) [21]: 8; minimal inhibitory concentration (MIC) [22]: 0.13; minimal inhibitory concentration (MIC) [23]: 0.031; minimal inhibitory concentration (MIC) [24]: 0.13; minimal inhibitory concentration (MIC) [25]: 0.25; minimal inhibitory concentration (MIC) [26]: 0.016; AUC at 2 h [27]: 55500 ng·h/mL; half-life [27]: 57 min
Nc1nc(/C(=N/O[C@H](C(=O)O)c2ccc(O)c(O)c2)C(=O)N[C@@H]2C(=O)N3C(C(=O)O)=C(CSc4nc(N)c(N)c(N)n4)CS[C@H]23)cs1 [Compound I-5S, 7-[(Z)-2-(aminothiazol-4-yl)-2-(α-carboxy-3,4-dihydroxybenzyloxyimino)acetamido]-3-(4,5,6-triaminopyrimidine-2-yl)thiomethyl-3-cephem-4-carboxylate]	2	1	8	64	32	4	≤ 0.008	0.031	0.031	0.031	0.016	0.063	≤ 0.008	0.25	0.25	0.13	0.25	0.13	0.063	2	minimal inhibitory concentration (MIC) [21]: 8; minimal inhibitory concentration (MIC) [22]: 0.13; minimal inhibitory concentration (MIC) [23]: 0.031; minimal inhibitory concentration (MIC) [24]: 0.13; minimal inhibitory concentration (MIC) [25]: 0.25; minimal inhibitory concentration (MIC) [26]: 0.016; AUC at 2 h [27]: 59500 ng·h/mL; half-life [27]: 59 min
Nc1cc(SCC2=C(C(=O)O)N3C(=O)[C@@H](NC(=O)/C(=N\O[C@H](C(=O)O)c4ccc(O)c(O)c4)c4csc(N)n4)[C@H]3SC2)ncn1 [Compound I-7S, 7[-(Z)-2-(aminothiazol-4-yl)-2-(α-carboxy-3,4-dihydroxybenzyloxyimino)acetamido]-3-(6-amino-pyrimidine-4-yl)thiomethyl-3cephem-4-carboxylate]	2	1	4	64	32	2	≤ 0.008	0.031	0.063	0.063	0.016	0.063	0.016	0.13	0.25	0.25	0.5	0.13	0.063	2	minimal inhibitory concentration (MIC) [21]: 8; minimal inhibitory concentration (MIC) [22]: 0.25; minimal inhibitory concentration (MIC) [23]: 0.063; minimal inhibitory concentration (MIC) [24]: 0.25; minimal inhibitory concentration (MIC) [25]: 0.25; minimal inhibitory concentration (MIC) [26]: 0.016; AUC at 2 h [27]: 60000 ng·h/mL; half-life [27]: 59 min
